# Key:
# [1] = Stability of the compound in PBS buffer at pH 7.2 assessed as half life at 25 degreeC by HPLC analysis; assay type: physicochemical
# [2] = Aqueous solubility of compound; assay type: physicochemical; conditions: buffer
# [3] = Stability of the compound in PBS buffer at pH 7.2 assessed as half life in the presence of MeCN by HPLC analysis; assay type: physicochemical
# [4] = Stability in human plasma assessed as half life at 37 degreeC by LC-MS/MS analysis; assay type: ADME, cell-free
# [5] = AUC (0-last) in Sprague-Dawley rat at 10 mg/kg, IM measured for 0.25 to 10 hrs by LC-MS/MS analysis; assay type: ADME, organism-based; design: time upper 10 hrs, dose 10 mg/kg, time lower 0.25 hrs, route im; conditions: in vivo
# [6] = Stability of the compound at pH 5; assay type: physicochemical; conditions: buffer
# [7] = Stability of the compound in PBS buffer at 37 degreeC; assay type: physicochemical
# [8] = AUC (0-last) in Sprague-Dawley rat assessed as AUC (0-last) of parent compound at 2 mg/kg,iv measured for 0.08 to 10 hrs by LC-MS/MS analysis; assay type: ADME, organism-based; design: dose 2 mg/kg, time upper 10 hrs, time lower 0.08 hrs, route iv; conditions: in vivo
# [9] = Cmax in Sprague-Dawley rat assessed as cmax of parent compound at 10 mg/kg,IM measured for 0.25 to 10 hrs by LC-MS/MS analysis; assay type: ADME, organism-based; design: time upper 10 hrs, time lower 0.25 hrs, dose 10 mg/kg, route im; conditions: in vivo
# [10] = Cmax in Sprague-Dawley rat at 2 mg/kg,iv measured for 0.08 to 10 hrs by LC-MS/MS analysis; assay type: ADME, organism-based; design: dose 2 mg/kg, time 0.08-10 hrs, route iv; conditions: in vivo
# [11] = Stability of the compound in PBS buffer at pH 7.2 assessed as half life at 37 degreeC by LC-MS/MS analysis; assay type: physicochemical
# [12] = Solubility of compound in normal saline; assay type: physicochemical
# [13] = Stability of the compound in 0.15 M NaCl; assay type: physicochemical
# [14] = AUC (0-last) in Sprague-Dawley rat at 2 mg/kg,iv measured for 0.08 to 10 hrs by LC-MS/MS analysis; assay type: ADME, organism-based; design: dose 2 mg/kg, time 0.08-10 hrs, route iv; conditions: in vivo
# [15] = Stability of the compound in PBS buffer at 4 degreeC; assay type: physicochemical
# Rattus norvegicus = assay: Neuroprotective activity against Sprague-Dawley rat model of traumatic brain injury assessed as reduction in cerebral edema at 10 mg/kg, IM administered for 1 to 6 hrs measured after 24 hrs relative to control; assay type: functional; design: scale not given: the % may be the effect or the level left; conditions: time 25-30 hrs
# [16] = Stability of the compound at pH 3; assay type: physicochemical; conditions: buffer
# [17] = Cmax in Sprague-Dawley rat at 10 mg/kg,im measured for 0.25 to 10 hrs by LC-MS/MS analysis; assay type: ADME, organism-based; design: time lower 0.25 hrs, dose 10 mg/kg, time upper 10 hrs, route im; conditions: in vivo
# [18] = AUC (0-last) in Sprague-Dawley rat assessed as AUC (0-last) of parent compound at 10 mg/kg,IM measured for 0.25 to 10 hrs by LC-MS/MS analysis; assay type: ADME, organism-based; design: time 0.25-10 hrs, dose 10 mg/kg, route im; conditions: in vivo
# [19] = Stability of the compound in 1 M NaCl; assay type: physicochemical
# [20] = Stability of the compound in 0.1 M HCl; assay type: physicochemical
# [21] = Cmax in Sprague-Dawley rat assessed as cmax of parent compound at 2 mg/kg,iv measured for 0.08 to 10 hrs by LC-MS/MS analysis; assay type: ADME, organism-based; design: dose 2 mg/kg, time 0.08-10 hrs, route iv; conditions: in vivo
# [22] = Cytotoxicity against human HepG2 cells by Maestro Z Impedance Assay; assay type: toxicity, cell-based
# HepG2 = assay: Cytotoxicity against human HepG2 cells assessed as maximum cytolysis at 100 uM by Maestro Z Impedance Assay relative to control; assay type: toxicity, cell-based; conditions: hepg2, 100 µM
compound,measurement,setting,value
C/C(=N\OC(=O)[C@@H](N)C(C)C)[C@H]1CC[C@H]2[C@@H]3CCC4=CC(=O)CC[C@]4(C)[C@H]3CC[C@]12C.Cl,half-life,[1],11 h
same,solubility,[2],146 µM
C/C(=N\OC(=O)N(C)CCNCCOC(F)(F)F)[C@H]1CC[C@H]2[C@@H]3CCC4=CC(=O)CC[C@]4(C)[C@H]3CC[C@]12C.Cl,half-life,[3],28.5 h
same,half-life,[4],1.7 h
same,solubility,[2],< 1 mg/mL
C/C(=N\OC(=O)N(C)C[C@@H]1CCCN1)[C@H]1CC[C@H]2[C@@H]3CCC4=CC(=O)CC[C@]4(C)[C@H]3CC[C@]12C.Cl,AUC(0-t),[5],288 ng·h/mL
same,half-life,[6],175 h
same,half-life,[7],1 h
same,AUClast,[8],176 ng·h/mL
same,Cmax,[9],954 ng/mL
same,Cmax,[10],122 ng/mL
same,half-life,[11],1.9 h
same,solubility,[12],> 50 mg/mL
same,half-life,[13],> 240 h
same,AUC(0-t),[14],62.9 ng·h/mL
same,half-life,[1],1.9 h
same,half-life,[15],74.4 h
same,Activity,Rattus norvegicus,40%
same,half-life,[16],192 h
same,Cmax,[17],224 ng/mL
same,AUClast,[18],1304 ng·h/mL
same,half-life,[19],168 h
same,half-life,[20],1.3 h
same,Cmax,[21],328 ng/mL
C/C(=N\OC(=O)OCCN)[C@H]1CC[C@H]2[C@@H]3CCC4=CC(=O)CC[C@]4(C)[C@H]3CC[C@]12C.Cl,half-life,[1],0.11 h
CNCCN(C)C(=O)O/N=C(\C)[C@H]1CC[C@H]2[C@@H]3CCC4=CC(=O)CC[C@]4(C)[C@H]3CC[C@]12C.Cl,half-life,[1],46.9 h
same,half-life,[4],2.7 h
CNCCN(CCO)C(=O)O/N=C(\C)[C@H]1CC[C@H]2[C@@H]3CCC4=CC(=O)CC[C@]4(C)[C@H]3CC[C@]12C.Cl,half-life,[1],24.8 h
same,half-life,[4],1.6 h
CNC[C@@H]1CCCN1C(=O)O/N=C(\C)[C@H]1CC[C@H]2[C@@H]3CCC4=CC(=O)CC[C@]4(C)[C@H]3CC[C@]12C.Cl,half-life,[1],> 240 h
same,half-life,[4],> 4 h
C/C(=N\OC(=O)N(C)C[C@@H]1CCCN1C)[C@H]1CC[C@H]2[C@@H]3CCC4=CC(=O)CC[C@]4(C)[C@H]3CC[C@]12C.Cl,half-life,[11],> 2 h
same,half-life,[4],0.9 h
C/C(=N\OC(=O)N(C)CCNCCO)[C@H]1CC[C@H]2[C@@H]3CCC4=CC(=O)CC[C@]4(C)[C@H]3CC[C@]12C.Cl,half-life,[1],30.4 h
same,half-life,[4],2.8 h
C/C(=N\OC(=O)OC[C@@H]1CCCN1)[C@H]1CC[C@H]2[C@@H]3CCC4=CC(=O)CC[C@]4(C)[C@H]3CC[C@]12C.Cl,half-life,[1],0.09 h
CN1C[C@@H]2CCCN2C1=O,CC50,[22],> 100 µM
same,Activity,HepG2,30%
CNCCCN(C)C(=O)O/N=C(\C)[C@H]1CC[C@H]2[C@@H]3CCC4=CC(=O)CC[C@]4(C)[C@H]3CC[C@]12C.Cl,half-life,[1],> 240 h
same,half-life,[4],> 4 h
C/C(=N\OC(=O)NCCN)[C@H]1CC[C@H]2[C@@H]3CCC4=CC(=O)CC[C@]4(C)[C@H]3CC[C@]12C.Cl,half-life,[1],> 240 h
same,half-life,[4],> 2 h
C/C(=N\OC(=O)OCCN(C)C)[C@H]1CC[C@H]2[C@@H]3CCC4=CC(=O)CC[C@]4(C)[C@H]3CC[C@]12C.Cl,half-life,[1],3.5 h
same,half-life,[4],7.2 h
C/C(=N\OC(=O)N1CCC[C@H]1CN)[C@H]1CC[C@H]2[C@@H]3CCC4=CC(=O)CC[C@]4(C)[C@H]3CC[C@]12C.Cl,half-life,[1],> 240 h
same,half-life,[4],> 4 h
C/C(=N\OC(=O)N(C)CCNCCF)[C@H]1CC[C@H]2[C@@H]3CCC4=CC(=O)CC[C@]4(C)[C@H]3CC[C@]12C.Cl,half-life,[1],36.1 h
same,half-life,[4],2.2 h
C/C(=N\OC(=O)NC[C@@H]1CCCN1)[C@H]1CC[C@H]2[C@@H]3CCC4=CC(=O)CC[C@]4(C)[C@H]3CC[C@]12C.Cl,half-life,[1],> 240 h
same,half-life,[4],> 4 h
C/C(=N\OC(=O)N(C)C[C@@H]1CCCCN1)[C@H]1CC[C@H]2[C@@H]3CCC4=CC(=O)CC[C@]4(C)[C@H]3CC[C@]12C.Cl,half-life,[1],> 240 h
C/C(=N\OCOP(=O)([O-])[O-])[C@H]1CC[C@H]2[C@@H]3CCC4=CC(=O)CC[C@]4(C)[C@H]3CC[C@]12C.[Na+].[Na+],AUC(0-t),[5],724 ng·h/mL
same,AUClast,[8],48 ng·h/mL
same,Cmax,[9],425 ng/mL
same,Cmax,[10],182 ng/mL
same,AUC(0-t),[14],22 ng·h/mL
same,Cmax,[17],1360 ng/mL
same,AUClast,[18],753 ng·h/mL
same,solubility,[2],> 150 mg/mL
same,Cmax,[21],219 ng/mL
C/C(=N\OC(=O)NCCN(C)C)[C@H]1CC[C@H]2[C@@H]3CCC4=CC(=O)CC[C@]4(C)[C@H]3CC[C@]12C.Cl,half-life,[1],> 240 h
same,half-life,[4],> 3.5 h
C/C(=N\OC(=O)NC[C@@H]1CCCCN1)[C@H]1CC[C@H]2[C@@H]3CCC4=CC(=O)CC[C@]4(C)[C@H]3CC[C@]12C.Cl,half-life,[1],> 240 h
CNCC(C)(C)CN(C)C(=O)O/N=C(\C)[C@H]1CC[C@H]2[C@@H]3CCC4=CC(=O)CC[C@]4(C)[C@H]3CC[C@]12C.Cl,half-life,[1],> 240 h
same,half-life,[4],> 4 h
CC(=O)[C@H]1CC[C@H]2[C@@H]3CCC4=C/C(=N/OC(=O)[C@@H](N)C(C)C)CC[C@]4(C)[C@H]3CC[C@]12C.Cl,half-life,[1],10 h
same,solubility,[2],172 µM
